Data published in patent publication US20260102387A1, “IMMUNOSUPPRESSIVE COMPOUNDS” (UNIVERSITÄT BASEL, priority 2022, published 2026).
“Also recorded” adds a separate entry of the source.

Columns and labels:
coronin 1 promoter = assay: Fluorescence-based screening assay: coronin 1 promoter driven GFP in RBL cells (microplate reader / microscopy); assay type: cell-based; conditions: 48 h
Experimental: The murine coronin 1 promoter sequences of SEQ ID NO: 1-6 were each cloned into a plasmid lacking a promoter (promoterless) but containing a destabilized Green Fluorescence Protein (GFP) cassette. Rat Basophil Leukemia (RBL) cells were transfected with the plasmids, stable GFP expressing cells were enriched, incubated with various compounds and assessed for coronin 1 promoter inhibition by assessing green fluorescence values (FIG. 2).
The plasmids were independently transfected into immune cells (Rat basophil Leukemia, RBL cells) to generate green and red fluorescent RBL cells that were subsequently enriched by means of flow cytometry. These cells were then mixed in equal ratio (1:1) and incubated in a 96 well plate at 100,000 cells/well in a volume of 200 μl of phenol red free RPMI supplemented with 8% fetal calf serum, L-glutamate and antibiotics (penicillin, […]) from available chemical libraries. At defined time points (8 h, 24 h and 48 h), the GFP and RFP fluorescence was measured using a 96 well microplate reader (Synergy, BioTek Instruments). […] Selected compounds show different levels of modulation of coronin 1 promoter driven GFP and CMV promoter driven RFP fluorescence. GFP and RFP fluorescence were analyzed with a microplate reader upon incubation with the top coronin 1 promoter inhibiting compounds. Shown are percentage of GFP reduction (left column) and percentage of RFP reduction (right column) for the compounds at 5 μg/ml concentration at 48 h. Cycloheximide (CHX) serves as positive control whereas media and DMSO serve as negative controls. […] Cells were imaged using a fluorescence microscope to validate fluorescence inhibition (FIG. 3A) and as well assess morphology and viability (in addition to GFP down regulation confirmation). In addition, quantitative Polymerase Chain Reaction (qPCR) for coronin 1 mRNA transcripts reveal reduction with compound 11 (FIG. 3B). The primers used for the qPCR on RBL cells are listed below as follows;

RBL cells [1] = assay: In vitro toxicity, Alamar blue assay; assay type: cell-based, Rat
Experimental: In vitro cytotoxicity tests were performed using Alamar blue (Invitrogen, USA) following manufacturers protocol. In brief, RBL cells pretreated with coronin 1 expression inhibitor or vehicle controls were reseeded and cultured in a 96-well plate at a concentration of 1×10^4 cells/ml of culture media. Alamar blue was added to the wells and further incubated at 37° C. for 4 h. The absorbance was measured at 600 nm using a microplate reader (Synergy, BioTek Instruments). DMSO and cycloheximide served as the vehicle and positive control respectively (FIG. 5A).

RBL cells [2] = assay: In vitro toxicity, MTT assay; assay type: cell-based, Rat
Experimental: MTT assay was performed with 3-(4,5-dimethylthiazol-2-yl)-2,5-diphenyltetra-zolium bromide (MTT, Cayman chemicals) using the manufacturers protocol. In brief, RBL cells pretreated with coronin 1 expression inhibitor or vehicle controls were reseeded and cultured in a 96-well plate at a concentration of […] cells/ml of culture media, 10 μL of MTT was added and incubated for 4 h at 37° C. At the end, culture supernatant was removed and the formazan crystals were dissolved with 100 μl of crystal dissolving solution and the absorbance measured at 570 nm using a plate reader (Synergy) (FIG. 5B).

coronin 1 = assay: Coronin 1 Western blotting in human PBMCs; assay type: cell-based; conditions: 10 μg/ml, 5 days
Experimental: buffer with 0.2% SDS containing protease and phosphatase inhibitors (Roche) at 4° C., followed by protein determination (BCA, Pierce) and SDS-PAGE, transferred onto nitrocellulose and probed using antibodies against the indicated proteins (actin and coronin 1) followed by HRP-labeled secondary antibodies and developed using an enhanced chemi-luminescence imager (Fuji) (FIG. 8A).
Heparinized or EDTA treated blood or buffy coat from healthy volunteers were enriched for monocytes using the standard Histopaque 1.077 gradient centrifugation methodology. Post enrichment, the monocyte fraction was washed extensively with plain RPMI and subsequently counted and seeded in 96 well plate at a density of 0.2 million cells/well in a volume of 200 μl RPMI-1640 (Sigma) containing 1× penicillin and streptomycin (Gibco), 2 mM L-glutamine (Gibco), 10% heat inactivated FCS (PAA) and heparin 50 units/ml along with the vehicle (DMSO) or coronin 1 inhibitor at indicated concentrations. Cells were incubated in a 37° C. humidified incubator with a 5% CO2 for five days with the expression inhibitor and vehicle replenished in between at 48 hours post seeding by replacing 50% of the media. […]

## COC(=O)C1=C(C)NC2=C(C(=O)CC(c3ccccc3OC)C2)C1c1cccc(O)c1 (centres unmarked) [Comp. 11, methyl-4-(3-hydroxyphenyl)-7-(2-methoxyphenyl)-2-methyl-5-oxo-1,4,5,6,7,8-hexahydro-3-quinolinecarboxylate]
Coronin 1 promoter; 10 μg/ml, confocal microscope
  coronin 1 promoter driven GFP, imaged by microscope: selectively reduce GFP values; also recorded: selective reduction
Coronin 1 promoter; RBL, 5 μg/ml, microplate reader, DMSO = 100, read-out: GFP values (%)
  activity at 5 µg/mL: 35%
RBL cells [1]
  in vitro toxicity by Alamar blue assay: minimal toxicity
RBL cells [2]
  in vitro toxicity by MTT assay: minimal toxicity
Coronin 1
  coronin 1 depletion in human PBMCs (Western blotting): coronin 1 depletion
